This assay concerns Human keratinocytes. The experiment in a line: 3H-thymidine incorporation by cultured keratinocytes (keratinocyte proliferation). The assay is classed as cell-based. To be noted: for effect on keratinocyte proliferation (summary): Examples 1-3; for activity at 0.1 µM / activity at 0.25 µM / activation at 0.25 µM / activation at 0.025 µM / activity at 0.025 µM: Homo sapiens, Keratinocyte; for activity at 0.1 µM / activity at 0.25 µM / activity at 0.025 µM: read-out: mean Thymidine incorp/μg protein (% control). Here is the method:
Human keratinocytes, isolated from neonatal foreskin by trypsin treatment were grown in Dulbecco Modification Eagle (DME) Hams F12 (1:1) medium/10% fetal calf serum in the presence of irradiated 3T3 mouse fibroblasts for establishing dividing keratinocyte colonies. Cells were grown under the above condition until their second passage and kept frozen for future use. Frozen second passage keratinocytes were thawed and plated into the above medium and grown for five days before they were switched to a serum-free MCDB 153-based medium keratinocyte growth medium (KGM) from Clonetics Corporation, San Diego, Calif., containing 0.15 mM Ca, or keratinocyte serum-free media (KSFM) from GIBCO containing 0.09 mM Ca). On day 7, when the cells were 80-90% confluent, they were trypsinized and plated in the serum-free medium for the various experiments.
The incorporation of ^3 H-thymidine by cultured keratinocytes was used as an assay of keratinocyte proliferation. Thymidine is one of four deoxynucleosides which are the monomeric units of DNA, the universal library of genetic information in the animal kingdom. Prior to cell division of a somatic cell such as a keratinocyte, the complete genome of the cell undergoing cell division is replicated. This involves large scale DNA synthesis by the cell and enables both daughter cells to receive identical copies of the genetic material. When ^3 H-thymidine is included in the culture media of keratinocytes which are synthesizing DNA in preparation for cell division then the labelled nucleoside is incorporated into the newly synthesized DNA. The extent of incorporation of ^3 H-thymidine into a population of cells is proportional to the rate of DNA synthesis by this population of cells and therefore an indication of their cellular proliferation.
Keratinocytes (that were cultured as described above) were plated in 24 well plates at a density of 40,000 cells per well in 1 ml media. After incubation for four days or until the cells were 60-70% confluent, the media was changed. Test compounds were added (in triplicate) to the wells 24 hours after the media change, and four hours later 1 μCl ^3 H-Thymidine in 50 μl media was added per well. Cells were incubated for a further 24 hours. Media was removed from the cells, 10% ice cold trichloroacetic acid (TCA) added and plates were incubated on ice for 30 minutes. Cells were washed five times with 5% TCA and allowed to dissolve in 500 μl […] NaOH for at least one hour (usually overnight). The preparations were neutralized with 0.1M HCl; 50 μl of the cell preparation was used to determine total protein content. Disintegrations per minute (DPM) from ^3 H labelling of DNA was determined by liquid scintillation counting of […] of the cell preparation. Thymidine incorporation results were expressed as DPM/μg protein.
A. The effect on incorporation of ^3 H-thymidine μg soluble protein 24 hours after the addition of retinoic acid or retinol at various concentrations was examined.
The effect on incorporation of ^3 H-thymidine/μg soluble protein 24 hours after addition of the test compounds was examined and the combined results of three independent experiments were normalized to their respective ethanol controls.
The effect of melinamide and the retinyl ester (retinyl palmitate) on incorporation of ^3 H-thymidine was examined.
(In general: Incorporation of labelled thymidine or its analogues reports DNA synthesis.)

[1] abbreviates: Example 2, 2.5 × 10^-8 M, n = 3, 24 hours, three experiments normalized to ethanol controls.
Setting [2] is: read-out: increase in keratinocyte thymidine incorporation over the ethanol control.

Like-named read-outs stand apart in the source and are kept apart here.

In the case of `CCCCC/C=C\C/C=C\CCCCCCCC(=O)NC(C)c1ccccc1` (stereo not shown) [Melinamide, melinamide], the “effect on keratinocyte proliferation (summary)” value (from here on “effect … (summary)”) was “little or no benefit on its own”. The “effect on keratinocyte proliferation on its own” value (Example 2, 10^-7 M) was “no effect”. Also, under “Example 2, 10^-7 M, n = 3, 24 hours, three experiments normalized to ethanol controls”, the “mean Thymidine incorp/μg protein ± s.d” value is given as 4695 ± 324 DPM/μg protein. Moreover, where the note is “Example 3, 10^-7 M”, the “effect on keratinocyte proliferation on its own” value is “no effect” and the “mean Thymidine incorp/μg protein ± s.d” value was determined as 4635 ± 608 DPM/μg protein. In addition, the activity at 0.1 µM (24 h, Example 2, 10^-7 M, n = 3, 24 hours) stood at 91%. For the same molecule, the activity at 0.1 µM (24 h, Example 3, 10^-7 M) is 84%.
As to `CC1=C(/C=C/C(C)=C/C=C/C(C)=C/C(=O)O)C(C)(C)CCC1` [RA, Retinoic acid], the “effect … (summary)” value was “increased keratinocyte proliferation”. Further, the “keratinocyte proliferation over both the ethanol control and each of the retinol treatments” value (Example 1, 2.5×10^-7 M, 2.5×10^-8 and 2.5×10^-9 M) is listed as “significantly increased keratinocyte proliferation”. Besides, the “mean Thymidine incorp/μg protein ± s.d” value under setting [1] is given as 6711 ± 402 DPM/μg protein. For the same molecule, the “mean Thymidine incorp/μg protein ± s.d” value (Example 3, 2.5 × 10^-7 M) is recorded as 7795 ± 370 DPM/μg protein. The activity at 0.25 µM (24 h, Example 3, 2.5 × 10^-7 M) is 142%. Besides, the activation at 0.25 µM (read-out: increase in keratinocyte thymidine incorporation over the 2.5×10^-7 M retinyl palmitate treatment) is 38%. Further, where the note is “read-out: increase in keratinocyte thymidine incorporation over the 2.5×10^-8 M retinol treatment”, the activation at 0.025 µM is 30%. Also, under setting [2], the activation at 0.025 µM stood at 30% and the activation at 0.25 µM is 38%. Also, under “Example 2, 2.5 × 10^-8 M, n = 3, 24 hours”, the activity at 0.025 µM came to 130%.
For `CC1=C(/C=C/C(C)=C/C=C/C(C)=C/CO)C(C)(C)CCC1` [ROH, Retinol], the “effect … (summary)” value is listed as “completely ineffective at increasing keratinocyte proliferation”. Besides, the “mean Thymidine incorp/μg protein ± s.d” value under setting [1] was 3956 ± 1303 DPM/μg protein. The activity at 0.025 µM (24 h, Example 2, 2.5 × 10^-8 M, n = 3, 24 hours) worked out at 76%.
As to `CCCCCCCCCCCCCCCC(=O)OC/C=C(C)/C=C/C=C(C)/C=C/C1=C(C)CCCC1(C)C` [Retinyl palmitate, retinyl palmitate], the “mean Thymidine incorp/μg protein ± s.d” value (Example 3, 2.5 × 10^-7 M) is 5746 ± 113 DPM/μg protein. Besides, the activity at 0.25 µM (24 h, Example 3, 2.5 × 10^-7 M) was determined as 104%.

For the origin of these results see patent US5693330A, “Skin care compositions containing melinamide and a retinoid” (priority 1996, dated 1997).
